# Experimental data: patent US20060264372A1, “Process for the synchronization of ovulation for timed breeding without heat detection” (priority 2003, published 2006)
# Experiments:
# postpartum sows = test: Timed deslorelin injection 96 hours post-weaning and single timed insemination without estrus detection (Example 3); type: in vivo, swine; settings: 50 mcg in SAIB 96 hours post-weaning
# Description: Approximately 170 postpartum sows were randomly divided into two equal groups comprised of controls and treated. Following weaning, the controls were detected for estrus and bred following the normal standard operating procedures for the farms on which they resided. The treated sows received a 50 mcg dose of deslorelin in SAIB at 96 hours post-weaning and were bred with a single insemination 28±2 hours later with no regard to estrus detection. The sows were examined for pregnancy by ultrasound at 21 days and slaughtered around 28 days post breeding. The entire reproductive tract was removed and corpora lutea and embryos were counted.
# mature postpartum sows = test: Intravulvar deslorelin at estrus detection in mature postpartum sows, AI breeding (Example 2); type: in vivo, swine; settings: per litter; 50 μg intravulvar at first estrus detection
# Description: Sows were assigned randomly in blocks of two to either control or to be injected intravulvar with 50 mcg of deslorelin in SAIB at the time of estrus detection for sows first detected in estrus in the a.m. and 12 hours later for those first detected in estrus in the p.m. Treated animals were bred AI upon detected estrus and again 24 hours later if still in estrus. Controls received a saline injection on first detected estrus behavior estrus detection and were bred according to the farm's normal procedures. Saline sows bred at detected estrus consistent with farm sows. Deslorelin sows injected intravulvar with 1 ml (50 μg deslorelin acetate) at first estrus detection and AI, then AI again if in estrus the next day. Live piglet number 0.6> in Deslorelin versus Saline sows.
compound,measurement,setting,value
"CCNC(=O)[C@@H]1CCCN1C(=O)[C@H](CCCN=C(N)N)NC(=O)[C@H](CC(C)C)NC(=O)[C@@H](Cc1c[nH]c2ccccc12)NC(=O)[C@H](Cc1ccc(O)cc1)NC(=O)[C@H](CO)NC(=O)[C@H](Cc1c[nH]c2ccccc12)NC(=O)[C@H](Cc1cnc[nH]1)NC(=O)[C@@H]1CCC(=O)N1 [Deslorelin, deslorelin]",Embryo Survival,postpartum sows,64%
same,Sows Pregnant,"postpartum sows; single insemination 28±2 hours later, 84 in group",60
same,"Live piglet number, greater versus Saline sows",mature postpartum sows,0.6
